Literature values in patent publication US20210236604A1, “THERAPEUTIC TREATMENT FOR NEUROTROPHIC KERATOPATHY” (priority 2017, published 2021).

Tests used:
[1] = system: corneal epithelium wound healing; conditions: with substance-P; Nishida 2009; cited from earlier work
corneal abrasions = conditions: diabetic rats, cited from earlier work
corneal ulcers = conditions: systemic administration; Aynsley 1945; cited from earlier work
[2] = system: experimentally-induced superficial skin wounds; conditions: diabetic and non-diabetic individuals; Greenway 1999; cited from earlier work
decubitus ulcers = conditions: Van Ort 1976; cited from earlier work
[3] = system: sub-basal plexus corneal nerves; conditions: diabetic mice; Chen 2013; cited from earlier work

Row | Substance | corneal epithelium wound healing [1] | wound healing after corneal abrasions (corneal abrasions; Zagon 2007, Klocek 2009) | corneal sensation (corneal abrasions; Zagon 2007) | healing of corneal ulcers (corneal ulcers) | healing of experimentally-induced superficial skin wounds [2] | healing of decubitus ulcers (decubitus ulcers) | loss of sub-basal plexus corneal nerves [3]
1 | Insulin-like growth factor-1 [IGF-1] | act synergistically with substance-P to promote corneal epithelium wound healing | – | – | – | – | – | –
2 | insulin [topical insulin] | – | improves wound healing | improves corneal sensation | improved healing of corneal ulcers | improve healing | improve healing | slow the loss
